Experimental data as given in PMC10447463, “Data-mining unveils structure–property–activity correlation of viral infectivity enhancing self-assembling peptides” (Nature Communications, 2023).
Where two headings read alike, the source gives them in different places.

Tests used:
[1] = format: physicochemical; settings: for ThT Cat. / ThT-Fluorescence (categorical): ThT-active if fluorescence at least twice the control
How it was run: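 Fibrils (1 mg/mL solution) were mixed with 50 µM ThT in PBS for 15 min at RT, and fluorescence was read at λex 440/λem 488 nm against a PBS blank, as a triplicate mean ± SD. Zeta potential came from electrophoretic mobility (Smoluchowski) after 1 d aggregation at 1 mg/mL in PBS pH 7.4, diluted into 1 mM KCl.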

[2] = Conversion rate (CR) assay with fluorescamine; format: physicochemical; set-up: key to CR: % = 100−100×filtrate/original fluorescence intensity; settings: conversion rate, fluorescamine assay; for CR / %: Fig. S7 panel B
Description: For ATR FT–IR spectroscopy measurements, 200 µL of the respective 1 mg/mL PNF solution was lyophilized and the resulting powder used for measurement. All spectra were recorded on a Bruker Tensor 27 spectrometer with a diamond crystal as ATR element (PIKE MiracleTM, spectral resolution 2 cm^-1). Every sample was measured with 64 scans. Data were analyzed with OriginLab software and calculation of β–sheet content was conducted according to a previous report. TEM. For TEM measurements 5 µL of PNF fibrils (1 mg/mL) were placed on copper grids coated with carbon and formvar layer (300 mesh, Plano GmbH). After 10 min incubation time, the grids were staining with 4% uranyl acetate solution for 2.5 min and washed with water. Measurements were performed on a Jeol 1400 electron microscope with 120 kV acceleration voltage. CR Assay. For the determination of the amount of peptide monomer converting into nanostructures the amine reactive dye fluorescamine was used analogous to a previous reported protocol. Briefly, 100 µL of the preformed PNF solution was centrifuged in a Vivaspin 500 tube (3 kDa MWCO) to separate fibers from free peptide monomer (16200 x g, 4 °C, 45 min). The filtrate and 100 μL of the non-filtered PNF sample were lyophilized and dissolved in 30 μL DMSO. 10 μL of the filtrate and non-filtered DMSO samples were submitted in a black UV Star® 384 microliter well–plates (Greiner bio–one) and 3 μL of the fluorescamine solution (10 mg/mL, DMSO) was added to measure the fluorescence enhancement. After 20 min of incubation at RT, fluorescence was recorded on an Infinite® M1000 PRO microplate reader (Tecan) at λem = 470 nm upon excitation at λex = 365 nm with 10 nm bandwidths and multiple reads per well (3×3). Measurements were repeated in triplicates and averaged with standard deviation. All values were calculated as n-fold fluorescence enhancement (DMSO only as a reference was set to 1). The conversion rate CR was defined according to the equation Eq. (3).3 CR=100−100×fluorescenceintensityfiltrate/fluorescenceintensityoriginal[%]

[3] = ThT fluorescence category, 1 if Rel. ThT >2

| Substance | Tht category (> 2 to blank = +) ([1]; Fig S10 panel D) | ThT Cat. ([1]; Fig S10 panel E) | Tht category (> 2 to blank = +) ([1]; FigS12 panel A) | ThT Cat, ([1]; FigS12 panel B) | ThT Cat, ([1]; ThT category, 1 if Rel. ThT >2) | ThT Cat. [1, 3] | ThT Cat. / ThT-Fluorescence (categorical) [1] | CR / % [2] [%] | CR [2] | ThT Cat. ([1]; ThT category, 1 if Rel. ThT >2) |
| --- | --- | --- | --- | --- | --- | --- | --- | --- | --- | --- |
| KFKFQF | 0 (ThT-inactive (N-Fold <2)) | 0 (ThT-inactive (N-Fold <2)) | 0 (ThT-inactive (N-Fold <2)) | 0 (ThT-inactive (N-Fold <2)) | 0 (ThT-inactive (N-Fold <2)) | 0 (ThT-inactive (N-Fold <2)) | 0 (ThT-inactive (N-Fold <2)) | 67.4 | 67.4 | – |
| KIKIQINM | 0 (ThT-inactive (N-Fold <2)) | 0 (ThT-inactive (N-Fold <2)) | – | – | 0 (ThT-inactive (N-Fold <2)) | 0 (ThT-inactive (N-Fold <2)) | 0 (ThT-inactive (N-Fold <2)) | 64 | 64 | – |
| SISISRRI | 0 (ThT-inactive (N-Fold <2)) | 0 (ThT-inactive (N-Fold <2)) | 0 (ThT-inactive (N-Fold <2)) | 0 (ThT-inactive (N-Fold <2)) | 0 (ThT-inactive (N-Fold <2)) | – | 0 (ThT-inactive (N-Fold <2)) | 24.2 | 24.22 | 0 (ThT-inactive (N-Fold <2)) |
| QCKFKFQFNM | 1 (ThT. Cat is 1, if Rel. ThT >2) | 1 (ThT. Cat is 1, if Rel. ThT >2) | – | – | 1 (ThT. Cat is 1, if Rel. ThT >2) | – | 1 (ThT. Cat is 1, if Rel. ThT >2) | 98.9 | 98.94 | 1 (ThT. Cat is 1, if Rel. ThT >2) |
| HGDKCHGDKC | 0 (ThT-inactive (N-Fold <2)) | 0 (ThT-inactive (N-Fold <2)) | 0 (ThT-inactive (N-Fold <2)) | 0 (ThT-inactive (N-Fold <2)) | 0 (ThT-inactive (N-Fold <2)) | – | 0 (ThT-inactive (N-Fold <2)) | 37.4 | 37.3627 | 0 (ThT-inactive (N-Fold <2)) |
| CHLHLQL | 1 (ThT. Cat is 1, if Rel. ThT >2) | 1 (ThT. Cat is 1, if Rel. ThT >2) | 1 (ThT. Cat is 1, if Rel. ThT >2) | 1 (ThT. Cat is 1, if Rel. ThT >2) | 1 (ThT. Cat is 1, if Rel. ThT >2) | – | 1 (ThT. Cat is 1, if Rel. ThT >2) | 96.6 | 96.58 | 1 (ThT. Cat is 1, if Rel. ThT >2) |
| QCKIKIQINMWQ | 1 (ThT. Cat is 1, if Rel. ThT >2) | 1 (ThT. Cat is 1, if Rel. ThT >2) | – | – | 1 (ThT. Cat is 1, if Rel. ThT >2) | – | 1 (ThT. Cat is 1, if Rel. ThT >2) | 93.7 | 93.68 | 1 (ThT. Cat is 1, if Rel. ThT >2) |
| CKFKFQF | 1 (ThT. Cat is 1, if Rel. ThT >2) | 1 (ThT. Cat is 1, if Rel. ThT >2) | – | – | 1 (ThT. Cat is 1, if Rel. ThT >2) | – | 1 (ThT. Cat is 1, if Rel. ThT >2) | 95.6 | 95.56 | 1 (ThT. Cat is 1, if Rel. ThT >2) |
| CEIEIQI | 1 (ThT. Cat is 1, if Rel. ThT >2) | 1 (ThT. Cat is 1, if Rel. ThT >2) | 1 (ThT. Cat is 1, if Rel. ThT >2) | 1 (ThT. Cat is 1, if Rel. ThT >2) | 1 (ThT. Cat is 1, if Rel. ThT >2) | – | 1 (ThT. Cat is 1, if Rel. ThT >2) | 59 | 59 | 1 (ThT. Cat is 1, if Rel. ThT >2) |
| HGEHGEHGE | 0 (ThT-inactive (N-Fold <2)) | 0 (ThT-inactive (N-Fold <2)) | 0 (ThT-inactive (N-Fold <2)) | 0 (ThT-inactive (N-Fold <2)) | 0 (ThT-inactive (N-Fold <2)) | – | 0 (ThT-inactive (N-Fold <2)) | 42.9 | 42.88 | 0 (ThT-inactive (N-Fold <2)) |
| QCKFKFQFNMWQ | 0 (ThT-inactive (N-Fold <2)) | – | – | – | 0 (ThT-inactive (N-Fold <2)) | – | 0 (ThT-inactive (N-Fold <2)) | 98.9 | 98.91 | 0 (ThT-inactive (N-Fold <2)) |
| KWKWQW | 0 (ThT-inactive (N-Fold <2)) | – | 0 (ThT-inactive (N-Fold <2)) | 0 (ThT-inactive (N-Fold <2)) | 0 (ThT-inactive (N-Fold <2)) | 0 (ThT-inactive (N-Fold <2)) | 0 (ThT-inactive (N-Fold <2)) | – | – | – |
| NMWQKAKAQA | 1 (ThT. Cat is 1, if Rel. ThT >2) | – | 1 (ThT. Cat is 1, if Rel. ThT >2) | 1 (ThT. Cat is 1, if Rel. ThT >2) | 1 (ThT. Cat is 1, if Rel. ThT >2) | – | 1 (ThT. Cat is 1, if Rel. ThT >2) | – | – | 1 (ThT. Cat is 1, if Rel. ThT >2) |
| KFKQFFNMWQ | 0 (ThT-inactive (N-Fold <2)) | – | 0 (ThT-inactive (N-Fold <2)) | 0 (ThT-inactive (N-Fold <2)) | 0 (ThT-inactive (N-Fold <2)) | – | 0 (ThT-inactive (N-Fold <2)) | – | – | 0 (ThT-inactive (N-Fold <2)) |
| FKFDKFKFDK | 0 (ThT-inactive (N-Fold <2)) | – | 0 (ThT-inactive (N-Fold <2)) | 0 (ThT-inactive (N-Fold <2)) | 0 (ThT-inactive (N-Fold <2)) | – | 0 (ThT-inactive (N-Fold <2)) | – | – | 0 (ThT-inactive (N-Fold <2)) |
| NMWQKVGTPL | 1 (ThT. Cat is 1, if Rel. ThT >2) | – | 1 (ThT. Cat is 1, if Rel. ThT >2) | 1 (ThT. Cat is 1, if Rel. ThT >2) | 1 (ThT. Cat is 1, if Rel. ThT >2) | – | 1 (ThT. Cat is 1, if Rel. ThT >2) | – | – | 1 (ThT. Cat is 1, if Rel. ThT >2) |
| QCKAKAQA | 0 (ThT-inactive (N-Fold <2)) | – | 0 (ThT-inactive (N-Fold <2)) | 0 (ThT-inactive (N-Fold <2)) | 0 (ThT-inactive (N-Fold <2)) | – | 0 (ThT-inactive (N-Fold <2)) | – | – | 0 (ThT-inactive (N-Fold <2)) |
| EFEFQF | 1 (ThT. Cat is 1, if Rel. ThT >2) | – | 1 (ThT. Cat is 1, if Rel. ThT >2) | 1 (ThT. Cat is 1, if Rel. ThT >2) | 1 (ThT. Cat is 1, if Rel. ThT >2) | 1 (ThT. Cat is 1, if Rel. ThT >2) | 1 (ThT. Cat is 1, if Rel. ThT >2) | – | – | – |
| CKWKWQW | 0 (ThT-inactive (N-Fold <2)) | – | – | – | 0 (ThT-inactive (N-Fold <2)) | 0 (ThT-inactive (N-Fold <2)) | 0 (ThT-inactive (N-Fold <2)) | – | – | – |
| MKFM | 0 (ThT-inactive (N-Fold <2)) | – | 0 (ThT-inactive (N-Fold <2)) | 0 (ThT-inactive (N-Fold <2)) | 0 (ThT-inactive (N-Fold <2)) | – | 0 (ThT-inactive (N-Fold <2)) | – | – | 0 (ThT-inactive (N-Fold <2)) |
| KIKIQIN | 0 (ThT-inactive (N-Fold <2)) | – | – | – | 0 (ThT-inactive (N-Fold <2)) | 0 (ThT-inactive (N-Fold <2)) | 0 (ThT-inactive (N-Fold <2)) | – | – | – |
| QCKIKQII | 1 (ThT. Cat is 1, if Rel. ThT >2) | – | 1 (ThT. Cat is 1, if Rel. ThT >2) | 1 (ThT. Cat is 1, if Rel. ThT >2) | 1 (ThT. Cat is 1, if Rel. ThT >2) | – | 1 (ThT. Cat is 1, if Rel. ThT >2) | – | – | 1 (ThT. Cat is 1, if Rel. ThT >2) |
